Assay [1] relates to RPMI-8226. The assay can be described thus: Induction of apoptosis in human RPMI8226 cells assessed as early apoptotic cells at 10 nM after 72 hrs by APC Annexin V/eFluor-780-viability double staining-based FACS analysis (reference value: 3.31%). The format is functional. On the technique in general: A flow cytometer gives signals particle by particle.
The test system of assay [2] is RPMI-8226. The assay can be described thus: Induction of apoptosis in human RPMI8226 cells assessed as late apoptotic cells at 10 nM after 72 hrs by APC Annexin V/eFluor-780-viability double staining-based FACS analysis (reference value: 5.80%). Format: functional.
Assay [3] has as its system RPMI-8226. The assay can be described thus: Induction of apoptosis in human RPMI8226 cells at 10 nM after 72 hrs in presence of GGOH by APC Annexin V/eFluor-780-viability double staining-based FACS analysis. Format: functional, cell-based.
For assay [4], the system named is RPMI-8226. As to the kind of experiment: Induction of apoptosis in human RPMI8226 cells assessed as necrotic cells at 10 nM after 72 hrs by APC Annexin V/eFluor-780-viability double staining-based FACS analysis (reference value: 3.60%). Format: functional.
Assay [5] has as its system RPMI-8226. The assay can be described thus: Induction of apoptosis in human RPMI8226 cells assessed as viable cells at 10 nM after 72 hrs by APC Annexin V/eFluor-780-viability double staining-based FACS analysis (reference value: 87.3%). Format: functional. To be noted: RPMI-8226, 72 h, read-out: Activity.
The target of assay [6] is T1, Farnesyl pyrophosphate synthase (Homo sapiens, UniProt P14324).
T1 sequence (P14324 whole entry): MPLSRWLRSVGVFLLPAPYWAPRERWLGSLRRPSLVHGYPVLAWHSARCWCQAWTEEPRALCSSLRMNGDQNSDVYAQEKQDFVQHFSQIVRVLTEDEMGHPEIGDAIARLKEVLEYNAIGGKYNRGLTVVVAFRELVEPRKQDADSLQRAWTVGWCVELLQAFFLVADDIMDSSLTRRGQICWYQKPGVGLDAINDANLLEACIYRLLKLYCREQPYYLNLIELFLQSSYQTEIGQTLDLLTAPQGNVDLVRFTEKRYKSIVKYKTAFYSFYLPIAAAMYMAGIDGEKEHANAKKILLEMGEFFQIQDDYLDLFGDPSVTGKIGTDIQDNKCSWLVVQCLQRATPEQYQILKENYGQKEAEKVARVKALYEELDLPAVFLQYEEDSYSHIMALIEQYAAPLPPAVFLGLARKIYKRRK
As to the kind of experiment: Inhibition of human FPPS using [14C]-IPP and […] after 10 mins by scintillation counting.

In assay [7] the target is T2, Geranylgeranyl pyrophosphate synthase (Homo sapiens, UniProt O95749).
T2 sequence (O95749 whole entry): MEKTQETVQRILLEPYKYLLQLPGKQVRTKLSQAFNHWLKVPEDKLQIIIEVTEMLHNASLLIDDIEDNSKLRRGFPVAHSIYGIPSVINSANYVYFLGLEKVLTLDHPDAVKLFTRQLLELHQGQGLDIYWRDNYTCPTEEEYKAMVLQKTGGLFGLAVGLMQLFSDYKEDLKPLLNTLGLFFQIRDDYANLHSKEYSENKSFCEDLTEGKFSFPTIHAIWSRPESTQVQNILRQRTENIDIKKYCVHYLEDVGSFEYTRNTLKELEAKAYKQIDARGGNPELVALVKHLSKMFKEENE

Assay [8] has as its target T3, Farnesyl pyrophosphate synthase (Homo sapiens) (UniProt P14324).
T3 sequence (whole entry): T1 sequence (P14324 whole entry)
The assay can be described thus: Inhibition of human FPPS at 1 uM using [14C]-IPP and […] after 10 mins by scintillation counting relative to control.

The target of assay [9] is T4, Geranylgeranyl pyrophosphate synthase (Homo sapiens) (UniProt O95749).
T4 sequence (whole entry): T2 sequence (O95749 whole entry)
As to the kind of experiment: Inhibition of human N-terminal His6-tagged GGPPS expressed in Escherichia coli BL21(DE3) at 1 uM using [14C]-IPP and FPP as substrates after 10 mins by scintillation counting relative to control.

The target of assay [10] is Geranylgeranyl pyrophosphate synthase (Homo sapiens, UniProt O95749, Y246D).
Chain of Geranylgeranyl pyrophosphate synthase (Homo sapiens, UniProt O95749, Y246D) (O95749 whole entry Y246D): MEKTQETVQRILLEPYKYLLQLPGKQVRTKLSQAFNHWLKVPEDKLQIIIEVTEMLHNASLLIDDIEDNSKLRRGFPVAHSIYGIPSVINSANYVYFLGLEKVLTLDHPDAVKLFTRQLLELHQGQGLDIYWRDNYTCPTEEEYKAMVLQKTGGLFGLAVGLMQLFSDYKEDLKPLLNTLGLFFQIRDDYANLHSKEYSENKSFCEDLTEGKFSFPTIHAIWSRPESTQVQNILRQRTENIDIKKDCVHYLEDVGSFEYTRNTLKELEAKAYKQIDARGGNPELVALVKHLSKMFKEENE
Assay [11] has as its system Hydroxyapatite. As to the kind of experiment: Binding affinity to bone mineral hydroxyapatite at 50 uM by 1H NMR assay.
Assay [12] deals with RPMI-8226. The assay can be described thus: cells. To be noted: Homo sapiens, RPMI-8226, 72 h.
Assay [13] deals with RPMI-8226. The assay can be described thus: Induction of apoptosis in human RPMI8226 cells assessed as late apoptotic cells at 1 uM after 72 hrs by APC Annexin V/eFluor-780-viability double staining-based FACS analysis (reference value: 5.80%). Format: functional.
Assay [14] concerns RPMI-8226. The assay can be described thus: Induction of apoptosis in human RPMI8226 cells assessed as viable cells at 1 uM after 72 hrs by APC Annexin V/eFluor-780-viability double staining-based FACS analysis (reference value: 87.3%). Format: functional. To be noted: RPMI-8226, 72 h, read-out: Activity.
For assay [15], the system named is RPMI-8226. As to the kind of experiment: Induction of apoptosis in human RPMI8226 cells assessed as necrotic cells at 1 uM after 72 hrs by APC Annexin V/eFluor-780-viability double staining-based FACS analysis (reference value: 3.60%). Format: functional.
Assay [16] has as its system RPMI-8226. As to the kind of experiment: Induction of apoptosis in human RPMI8226 cells assessed as early apoptotic cells at 1 uM after 72 hrs by APC Annexin V/eFluor-780-viability double staining-based FACS analysis (reference value: 3.31%). The format is functional.
Assay [17] concerns RPMI-8226. The assay can be described thus: Induction of apoptosis in human RPMI8226 cells after 72 hrs by APC Annexin V/eFluor-780-viability double staining-based FACS analysis. Format: functional, cell-based.
For assay [18], the species on record is Homo sapiens. The assay can be described thus: Selectivity ratio of IC50 for human FPPS to IC50 for human N-terminal His6-tagged GGPPS.
In assay [19] the test system is T5, Geranylgeranyl pyrophosphate synthase (Homo sapiens), O95749 [Y246D].
T5 sequence (whole entry): T2 sequence (O95749 whole entry) with Y246D
The assay can be described thus: Binding affinity to human N-terminal His6-tagged GGPPS Y246D mutant expressed in Escherichia coli BL21(DE3) assessed as enzyme-inhibitor complex formation by measuring thermal stability in presence of Mg2+ ions by differential scanning fluorimetry. A general note: Differential scanning fluorimetry follows unfolding on heating by fluorescence.

Assay [20] concerns RPMI-8226. The assay can be described thus: Induction of apoptosis in human RPMI8226 cells assessed as early apoptotic cells at 10 uM after 72 hrs by APC Annexin V/eFluor-780-viability double staining-based FACS analysis (reference value: 3.31%). The format is functional.
Assay [21] deals with RPMI-8226. The assay can be described thus: Induction of apoptosis in human RPMI8226 cells assessed as late apoptotic cells at 10 uM after 72 hrs by APC Annexin V/eFluor-780-viability double staining-based FACS analysis (reference value: 5.80%). The format is functional.
The subject of assay [22] is RPMI-8226. As to the kind of experiment: Induction of apoptosis in human RPMI8226 cells assessed as viable cells at 10 uM after 72 hrs by APC Annexin V/eFluor-780-viability double staining-based FACS analysis (reference value: 87.3%). The format is functional. To be noted: RPMI-8226, 72 h, read-out: Activity.
For assay [23], the system named is RPMI-8226. The assay can be described thus: Induction of apoptosis in human RPMI8226 cells assessed as necrotic cells at 10 uM after 72 hrs by APC Annexin V/eFluor-780-viability double staining-based FACS analysis (reference value: 3.60%). The format is functional.
The target in assay [24] is T4, Geranylgeranyl pyrophosphate synthase (Homo sapiens). The assay can be described thus: Inhibition of human N-terminal His6-tagged GGPPS expressed in Escherichia coli BL21(DE3) at 10 uM using [14C]-IPP and FPP as substrates after 10 mins by scintillation counting.
Assay [25] addresses T3, Farnesyl pyrophosphate synthase (Homo sapiens). As to the kind of experiment: Inhibition of human FPPS at 10 uM using [14C]-IPP and […] after 10 mins by scintillation counting.
The subject of assay [26] is RPMI-8226. As to the kind of experiment: Antiproliferative activity against human RPMI8226 cells at 10 uM after 72 hrs by MTT assay. Format: functional, cell-based.
Assay [27] has as its system HT-1080. As to the kind of experiment: Antiproliferative activity against human HT1080 cells at 10 uM after 72 hrs by celltiter-glo luminescent assay. The format is functional, cell-based. In general terms: In ATP-based viability assays light output follows the ATP content of the culture.
Assay [28] concerns MIA PaCa-2. As to the kind of experiment: Antiproliferative activity against human MIAPaCa2 cells at 10 uM after 72 hrs by celltiter-glo luminescent assay. Format: functional, cell-based.
For assay [29], the system named is A549. As to the kind of experiment: Antiproliferative activity against human A549 cells at 10 uM after 72 hrs by celltiter-glo luminescent assay. The format is functional, cell-based.
Assay [30] concerns NCI/ADR-RES. The assay can be described thus: Antiproliferative activity against human NCI-ADR-RES cells after 72 hrs by celltiter-glo luminescent assay. The format is functional, cell-based.
Assay [31] deals with HCT-116. The assay can be described thus: Antiproliferative activity against human HCT116 cells at 10 uM after 72 hrs by celltiter-glo luminescent assay. The format is functional, cell-based.
Assay [32] concerns T98G. As to the kind of experiment: Antiproliferative activity against human T98G cells at 10 uM after 72 hrs by celltiter-glo luminescent assay. The format is functional, cell-based.
Assay [33] relates to HT-29. As to the kind of experiment: Antiproliferative activity against human HT-29 cells at 10 uM after 72 hrs by celltiter-glo luminescent assay. Format: functional, cell-based.

One may read the IC50 as the concentration that gives 50% inhibition. Broadly, the inhibition is the share of the control response that was lost under treatment. As a reminder, the EC50 is the concentration that produces a half-maximal response. Low readings indicate greater potency, high ones weaker potency.

Where a chain is given by its changes, count along the chain named. Active and inactive are the calls of the source. The rule behind the calls is not given here.

As to `CC(C)C[C@H](NC(=O)[C@H](Cc1ccccc1)NC(=O)c1cnccn1)B(O)O` [BORTEZOMIB], the Activity was determined as 0.26% in assay [1], 78.7% in [2] and 20.1% in [4]. The result in assay [3] was Active. Moreover, the viability at 0.01 µM in [5] worked out at 0.92%.
Regarding `O=P(O)(O)C(Nc1nc(-c2ccccc2)nc2sccc12)P(=O)(O)O`, the IC50 in [6] was 0.55 µM.
As to `O=P(O)(O)C(Nc1ncnc2sccc12)P(=O)(O)O`, the IC50 was over 1 µM in assay [7] and 0.8 µM in [6]. For the same molecule, the inhibition in assay [8] worked out at 70%; in assay [9], 40%.
In turn, `COc1ccc(C(=O)Nc2cccc(-c3nc(NC(P(=O)(O)O)P(=O)(O)O)c4ccsc4n3)c2)cc1` showed an IC50 in assay [10] of 0.092 µM.
Turning to `O=C(Nc1ccccc1)c1cccc(-c2nc(NC(P(=O)(O)O)P(=O)(O)O)c3ccsc3n2)c1`, the results for the IC50 in [7] and in assay [10] were 0.049 µM and 0.05 µM, respectively. For the same molecule, the result in [11] was Active. This molecule also returned an EC50 in [12] of 0.46 µM.
In the case of `O=P(O)(O)C(O)(Cc1ccccn1)P(=O)(O)O`, the result in assay [11] was Active. In [12], this molecule displayed an EC50 of 11 µM.
The molecule `O=P(O)(O)C(Nc1ncnc2sc(-c3ccc(C(F)(F)F)cc3)cc12)P(=O)(O)O` showed an IC50 in assay [7] of 1.5 µM. This molecule also yielded an EC50 in assay [12] of over 100 µM.
As for `O.O=P(O)(O)C(O)(Cn1ccnc1)P(=O)(O)O` [ZOLEDRONIC ACID], the Activity is on record as 6.53% in [13], 5.04% in assay [15] and 2.55% in assay [16]. Further, the viability at 1 µM in assay [14] was 85.9%. Further, the outcome in assay [11] was Active.
As to `Cc1ccc(C(=O)Nc2cccc(-c3nc(NC(P(=O)(O)O)P(=O)(O)O)c4ccsc4n3)c2)cc1`, in assay [17], the Activity result was “Dose-dependent effect”. The molecule also gave an IC50 in assay [6] of 2.6 µM. This molecule gave an EC50 in [12] of 0.72 µM.
`O=C(Nc1cccc(-c2nc(NC(P(=O)(O)O)P(=O)(O)O)c3ccsc3n2)c1)c1ccccc1`: the IC50 in assay [10] amounted to 0.039 µM. Moreover, the Ratio IC50 in [18] came to 30. The same molecule displayed an EC50 in assay [12] of 0.5 µM.
`O=C(Nc1cccc(-c2nc(NC(P(=O)(O)O)P(=O)(O)O)c3ccsc3n2)c1)c1ccc(F)cc1`: the IC50 is 0.042 µM in [7] and over 1 µM in assay [6]. In assay [8], this molecule displayed an inhibition of 20%. Besides, the result in [19] was Active.
In the case of `CC(C)=CCC/C(C)=C/CC/C(C)=C/CC/C(C)=C/CO` [GERANYLGERANIOL], the Activity in assay [20] turned out to be 4.71%; in [21], 4.96%; in [23], 2.91%. For the same molecule, the viability at 10 µM in [22] was 87.4%.
Turning to `O=C(Nc1cccc(-c2cc3c(NC(P(=O)(O)O)P(=O)(O)O)ncnc3s2)c1)c1ccccc1`, the inhibition entry in [24] and in [25] was “inactive” each time. The outcome in [26] was inactive.
With `COc1ccc(NC(=O)c2cccc(-c3nc(NC(P(=O)(O)O)P(=O)(O)O)c4ccsc4n3)c2)cc1`, the result in [27], in [28], in assay [29], in [30], in [31] and in assay [32] was Active. Further, the outcome in assay [33] was Active. The values for the IC50 in [7] and in assay [6] were 0.075 µM and 1.3 µM, respectively. The response in [12] was half-maximal at 0.23 µM (EC50).

The record behind these values is ChEMBL document CHEMBL4382196, “Unraveling the Prenylation-Cancer Paradox in Multiple Myeloma with Novel Geranylgeranyl Pyrophosphate Synthase (GGPPS) Inhibitors” (J Med Chem, 2018).
